The record followed here is US7521570B2, “Medicinal compositions containing 6-hydroxybenzbromarone or salts thereof” (Torli Pharmaceutical Co., Ltd., priority 2004, dated 2009).

Read-outs that look alike come from different tables or passages of the source.

Data set [1] deals with T1, xanthine oxidase derived from bovine milk (Bos taurus, UniProt P80457).
T1 construct: xanthine oxidase derived from bovine milk; from tissue; host or cells: bovine milk
Kind of data set: Xanthine oxidase inhibitory activity (absorbance 292 nm, xanthine substrate). It is filed as biochemical. The conditions noted are these: for IC50: 100 μM xanthine, 37° C., pH 7.4, read-out: IC50 level, xanthine oxidase. On the procedure:
Subsequently, xanthine oxidase inhibitory activity of 6-hydroxybenzbromarone was investigated. Activity of xanthine oxidase derived from bovine milk was checked as follows: Using 100 μM of xanthine as the substrate, and using a system for measuring chronologically the absorbance (292 nm) of […] generated at 37° C. in 1/15 M phosphate buffer solution (pH 7.4) in which 0.1 M phosphate buffer solution was diluted by half volume of water, inhibitory activity of 6-hydroxybenzbromarone or of oxypurinol that is a metabolic product of allopurinol was measured to analyze IC50.
Activity of xanthine oxidase derived from bovine milk was analyzed as follows.

Data set [2] has as its target T2, human OAT3 (human organic anion transporter 3) (Homo sapiens, UniProt Q8TCC7).
T2 construct: expressed in transfected cells; host or cells: S2 cells expressing OAT3
T2 sequence (Q8TCC7 1-542): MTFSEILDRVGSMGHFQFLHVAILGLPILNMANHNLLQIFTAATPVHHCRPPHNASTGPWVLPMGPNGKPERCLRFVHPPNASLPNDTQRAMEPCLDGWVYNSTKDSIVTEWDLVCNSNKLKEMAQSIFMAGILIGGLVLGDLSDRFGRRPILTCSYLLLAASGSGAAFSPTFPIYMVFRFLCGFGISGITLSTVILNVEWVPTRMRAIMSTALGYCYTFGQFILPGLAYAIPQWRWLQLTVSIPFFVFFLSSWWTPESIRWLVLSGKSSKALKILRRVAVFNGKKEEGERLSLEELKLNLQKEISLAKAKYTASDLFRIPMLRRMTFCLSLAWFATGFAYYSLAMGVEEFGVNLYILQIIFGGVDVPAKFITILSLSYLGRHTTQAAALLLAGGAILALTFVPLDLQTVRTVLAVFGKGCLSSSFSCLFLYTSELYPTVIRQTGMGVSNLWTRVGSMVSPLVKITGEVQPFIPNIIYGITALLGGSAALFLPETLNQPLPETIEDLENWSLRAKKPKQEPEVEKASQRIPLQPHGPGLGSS
Kind of data set: Inhibition of 3H-estrone sulfate uptake by OAT3 in S2 cells. The class given is cell-based. The settings on record: for Ki: OAT3, 3H-estrone sulfate uptake. As for the experimental part:
OAT3 is an organic anion transporter which is present at basal-lateral (vascular side) membrane of the proximal renal tubule and takes organic anion such as uric acid into cells, and estrone sulfate is known as the typical substrate of this.
The horizontal axis of FIG. 8 represents 1/S (L/mmol) and the vertical axis represents 1/V (mg protein/μM/min), black square (▪) denotes 6-hydroxybenzbromarone (0.3 μM) case and white square (□) denotes control.

The nature of data set [3]: Clinical pharmacokinetic test, single dose of benzbromarone, plasma and urine by LC/MS/MS. The class given is in vivo, human. The settings on record: for detection in the urine: till 72 hours; for concentration at 72 h: male, human, po, 100 mg as benzbromarone. As for the experimental part:
Next, clinical pharmacokinetic test was carried out for a case where single dose of benzbromarone was given to healthy male adult subjects.
Results of plasma concentration of 6-hydroxybenzbromarone are shown in FIG. 3 and results of urine concentration of the same are shown in FIG. 4, respectively. The vertical axis of FIG. 3 represents plasma level (ng/mL) and the horizontal axis represents time elapsed (hour). […] The vertical axis of FIG. 4 represents concentration in the urine (ng/mL) and the horizontal axis represents time elapsed (hour).

Data set [4] can be described thus: Pharmacokinetic test of single dose in rats. The class given is in vivo. The settings on record: single dose of 100 mg/kg; for Cmax / AUC(0-t): rat, in vivo, po; for AUC(0-t): read-out: AUC0-24hr.
Data set [5] addresses T3, human OAT4 (human organic anion transporter 4) (Homo sapiens, UniProt Q9NSA0).
T3 sequence (Q9NSA0 1-550): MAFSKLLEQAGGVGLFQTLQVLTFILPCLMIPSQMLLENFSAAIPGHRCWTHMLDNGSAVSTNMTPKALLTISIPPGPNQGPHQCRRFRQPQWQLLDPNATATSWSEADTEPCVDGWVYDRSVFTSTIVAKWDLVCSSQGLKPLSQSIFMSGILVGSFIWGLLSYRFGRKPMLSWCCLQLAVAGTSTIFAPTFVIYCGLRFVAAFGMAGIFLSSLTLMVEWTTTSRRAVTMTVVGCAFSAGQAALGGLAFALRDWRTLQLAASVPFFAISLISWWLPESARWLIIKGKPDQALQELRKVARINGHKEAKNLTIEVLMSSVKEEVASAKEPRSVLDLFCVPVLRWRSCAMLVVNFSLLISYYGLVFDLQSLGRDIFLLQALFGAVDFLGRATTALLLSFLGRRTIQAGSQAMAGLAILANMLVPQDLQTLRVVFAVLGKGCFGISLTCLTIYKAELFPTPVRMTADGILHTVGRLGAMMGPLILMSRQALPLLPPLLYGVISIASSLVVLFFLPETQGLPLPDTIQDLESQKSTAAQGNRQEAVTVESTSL
Put plainly: Inhibition of 3H-estrone sulfate uptake by OAT4 in S2 cells. The settings on record: S2 cells expressing OAT4. The class given is cell-based. An excerpt: OAT4 is an organic anion transporter which is present at luminal side membrane of the proximal renal tubule and takes organic anion such as uric acid into cells, and estrone sulfate is known as the typical substrate of this. […] Results are shown in FIG. 6 in the form of relative value while the amount of uptake of ^3H-estrone sulfate in a case where nothing is present (control) is considered to be 100%.

Data set [6] has as its target T4, URAT1 (Homo sapiens, UniProt Q96S37).
T4 construct: expressed in transfected cells
T4 sequence (Q96S37 1-553): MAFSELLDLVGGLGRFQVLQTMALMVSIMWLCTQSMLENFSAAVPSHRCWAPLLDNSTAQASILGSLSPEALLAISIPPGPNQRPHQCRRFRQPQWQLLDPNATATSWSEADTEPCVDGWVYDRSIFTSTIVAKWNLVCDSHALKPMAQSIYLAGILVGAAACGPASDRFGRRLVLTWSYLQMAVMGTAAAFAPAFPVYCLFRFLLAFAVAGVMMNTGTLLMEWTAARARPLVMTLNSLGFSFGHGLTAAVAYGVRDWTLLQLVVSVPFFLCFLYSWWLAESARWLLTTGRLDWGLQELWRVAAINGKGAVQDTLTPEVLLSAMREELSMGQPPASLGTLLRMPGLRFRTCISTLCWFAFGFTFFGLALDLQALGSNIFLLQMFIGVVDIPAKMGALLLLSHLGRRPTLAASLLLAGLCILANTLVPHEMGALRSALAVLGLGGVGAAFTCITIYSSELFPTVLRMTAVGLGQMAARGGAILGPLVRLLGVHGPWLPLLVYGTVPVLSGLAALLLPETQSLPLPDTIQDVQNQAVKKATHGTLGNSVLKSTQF
Kind of data set: Inhibition of [14C] uric acid uptake by URAT1 in MDCK-URAT1 cells. It is filed as cell-based. The settings on record: for IC50: MDCK-URAT1 cells, 100 μM [14C] uric acid. On the procedure: cDNA of URAT1 was introduced into MDCK cells and stably expressing cells (MDCK-URAT1) were created. […] Experiments are carried out each three times and level of IC50 was analyzed by profit.
cDNA of URAT1 which was integrated into mammal expression vector pcDNA3.1, or pcDNA3.1 was gene transfected to MDCK cells to create stably expressing cells (MDCK-URAT1) and mock cells.
This MDCK-URAT1 was cultured in the minimal essential medium containing 5% fetal bovine serum and 400 μg/mL geneticin, cells were placed in 24-well dish (as many as 10^5 cells per one well) and cultured for 2 days. After that, it was washed with Dulbecco's modified PBS and subjected to pre-incubation in the Dulbecco's modified PBS solution for 10 min.
After that, it was washed with Dulbecco's modified PBS solution three times and cells were collected by 0.1N NaOH. Scintillation cocktail was then added to count dpm of [^14C] uric acid being taken in cells by liquid scintillation counter. Values of IC50 were analyzed by profit.

The mark [7] stands for this setting: healthy male adults, single oral 100 mg benzbromarone.

T1 sequence (P80457 whole entry): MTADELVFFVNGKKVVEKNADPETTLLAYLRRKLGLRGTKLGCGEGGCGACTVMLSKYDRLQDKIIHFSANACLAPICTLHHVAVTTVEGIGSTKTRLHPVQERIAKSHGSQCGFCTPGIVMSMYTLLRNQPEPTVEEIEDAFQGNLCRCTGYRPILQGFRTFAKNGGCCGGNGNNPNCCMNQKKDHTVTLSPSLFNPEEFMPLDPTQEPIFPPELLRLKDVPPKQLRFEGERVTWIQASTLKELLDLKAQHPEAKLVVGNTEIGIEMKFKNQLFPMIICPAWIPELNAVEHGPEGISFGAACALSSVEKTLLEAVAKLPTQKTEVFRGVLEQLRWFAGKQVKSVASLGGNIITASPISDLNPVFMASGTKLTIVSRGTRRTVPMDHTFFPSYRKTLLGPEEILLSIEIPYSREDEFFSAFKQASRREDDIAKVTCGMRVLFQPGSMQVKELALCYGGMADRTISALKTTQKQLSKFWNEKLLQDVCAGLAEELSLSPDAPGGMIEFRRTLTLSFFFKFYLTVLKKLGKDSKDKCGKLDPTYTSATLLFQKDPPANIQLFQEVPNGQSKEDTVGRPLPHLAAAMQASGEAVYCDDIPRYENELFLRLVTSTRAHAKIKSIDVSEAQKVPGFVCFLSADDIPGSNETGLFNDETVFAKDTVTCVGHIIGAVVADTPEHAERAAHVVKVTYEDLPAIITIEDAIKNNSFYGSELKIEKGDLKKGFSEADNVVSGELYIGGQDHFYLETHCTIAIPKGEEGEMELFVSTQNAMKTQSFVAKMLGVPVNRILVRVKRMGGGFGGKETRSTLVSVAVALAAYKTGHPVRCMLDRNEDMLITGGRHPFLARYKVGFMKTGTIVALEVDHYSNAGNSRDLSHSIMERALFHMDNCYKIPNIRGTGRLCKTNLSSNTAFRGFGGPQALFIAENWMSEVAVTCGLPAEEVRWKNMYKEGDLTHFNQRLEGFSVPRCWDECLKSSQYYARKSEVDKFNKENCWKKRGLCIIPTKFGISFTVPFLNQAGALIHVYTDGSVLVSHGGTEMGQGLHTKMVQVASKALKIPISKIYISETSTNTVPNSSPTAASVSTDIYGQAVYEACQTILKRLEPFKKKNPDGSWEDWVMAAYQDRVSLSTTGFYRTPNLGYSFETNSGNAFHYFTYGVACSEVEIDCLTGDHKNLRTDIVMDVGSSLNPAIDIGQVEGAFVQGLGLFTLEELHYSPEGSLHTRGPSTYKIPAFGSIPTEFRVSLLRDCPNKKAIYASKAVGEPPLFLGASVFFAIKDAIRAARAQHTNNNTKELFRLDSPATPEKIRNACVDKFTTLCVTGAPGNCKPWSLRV

Regarding `O=c1[nH]c(=O)c2c[nH]nc2[nH]1` [oxypurinol, reference compound], the IC50 in data set [1] was found to be 13000 nM.

On to `CCc1oc2ccccc2c1C(=O)c1cc(Br)c(O)c(Br)c1` [benzbromarone], for which the IC50 in data set [2] was determined as 700 nM. Further, in data set [3] (setting [7]), the “time after administration at which eliminated from plasma” value is 48 h and the “detection in the urine” value was “detected little in the urine”. Also, in data set [4], the concentration peaked (Cmax) at 90200 ng/mL and the AUC(0-t) amounted to 887 µg·h/mL. In data set [5], this molecule had an IC50 of 5400 nM.

In the case of `CCc1oc2cc(O)ccc2c1C(=O)c1cc(Br)c(O)c(Br)c1` [6-hydroxybenzbromarone, 2-ethyl-6-hydroxy-3-(3′,5′-dibromo-4′-hydroxy-benzoyl)-benzofuran], the IC50 was determined as 68000 nM in data set [1]; 300 nM in data set [2] (S2 cells expressing OAT3, 3H-estrone sulfate (50 nmol/L)); 3200 nM in data set [5]; 200 ± 60 nM in data set [6] (37° C. 2 min, three experiments, read-out: level of IC50, uric acid uptake by URAT1, after three times experiments); 130 nM in data set [6] (single experiment shown in figure, read-out: level of IC50, uric acid uptake by URAT1 (FIG. 1 / FIG. 2)). For the same molecule, the “inhibitory activity of xanthine oxidase relative to oxypurinol” value in data set [1] (fraction of that of oxypurinol) is “approximately ⅕”. Also, the “inhibitory style at OAT3” value in data set [2] (3H-estrone sulfate uptake, 0.3 μM, FIG. 8) is “mixed type of competitive inhibition and noncompetitive inhibition”. Besides, the Ki in data set [2] (FIG. 8, read-out: Ki-value (competitive inhibition)) was 1000 nM; in data set [2] (FIG. 8, read-out: Ki-value (noncompetitive inhibition)), 700 nM. In data set [3] (setting [7]), the “AUC in plasma relative to benzbromarone” value is “twice or higher level than that of benzbromarone”. Moreover, in data set [3] (setting [7]), the “detection in the urine” value is recorded as “high level”. Further, the concentration at 72 h in data set [3] (plasma, read-out: plasma concentration 72 hours after administration) was roughly 110 ng/mL; in data set [3] (urine, read-out: urine concentration 72 hours after administration), roughly 170 ng/mL. This molecule displayed a Cmax in data set [4] of 34600 ng/mL. Further, the AUC(0-t) in data set [4] was found to be 291 µg·h/mL. Further, in data set [4], the “absorption from the digestive tract into bloodstream” value is on record as “absorbed favorably”. Moreover, in data set [6] (fraction of that of benzbromarone), the “intensity of uric acid uptake inhibition relative to benzbromarone” value is “approximately ⅙”.
